{"source": "paper PMC9095875", "about": "“Solubility measurement and thermodynamic modeling of pantoprazole sodium sesquihydrate in supercritical carbon dioxide” (Scientific Reports, 2022)", "key": {"[1]": {"experiment": "Solubility of solid drug in supercritical carbon dioxide (isobaric-isothermal method, UV-Vis at 290 nm)", "format": "physicochemical", "details": "for y2 × 10^4 (mole fraction): value is y2 × 10^4", "procedure": "The method utilized is considered as the isobaric-isothermal method. Each measurement is performed with high precision, during experiments; temperature is maintained at desired value within ± 0.1 K. A known amount of pantoprazole sodium sesquihydrate drug (solute) has been used in the equilibrium cell to measure the solubility data. The capacity of the cell is 70 mL. A magnetic stirrer was mounted with the cell to measure the solubility data. A magnetic stirrer that is mounted with the equilibrium cell helps in attaining equilibrium between the solute and the ScCO2. To confirm equilibrium attainment, the experiments are done with a fresh sample at specified temperature and pressure at various time intervals (5 min, 10 min, 20 min, 30 min, 40 min, 50 min and 60 min) and the solubility readings are recorded. It is observed that the solubility is independent of time after 30 min. Thus, for correct results after 60 min, samples are considered for analysis. After equilibrium, 600 μL of a saturated sample is collected in dematerialized water (DM water's conductivity is 1μS/cm) via a 6-way port, two-status valve. More details are readily available elsewhere[30],[31]. This experimental setup has already been validated in the previous work with alpha-tocopherol and naphthalene. Each experiment is carried out in triplicate. Spectrophotometer (UV-Visible, Model UNICO-4802) is utilized to quantify the pantoprazole sodium sesquihydrate solubility. The drug test samples were prepared by dissolving known weights of drug in known volume of DM water. Pantoprazole sodium sesquihydrate samples were analyzed at 290 nm and calibrations curve was established, indicating R^2 of 0.99. The following sets of equations are used to calculate equilibrium mole fraction, y2, and solubility, S (g/L), in ScCO2:1 y2=nsolute/nsolute+nCO2, where:2 […]/mol,and 3 […]/mol 4 […]) where nsolute and nCO2 are moles of solute (Pantoprazole sodium sesquihydrate) and CO2 in the sampling loop, respectively, Cs is the solute concentration (g/L), Ms and MCO2 are molecular weights of the solute and CO2 and S (g/L) is the equilibrium solubility."}, "[2]": {"experiment": "Thermodynamic properties calculated from constants of the Chrastil, reformulated Chrastil and Bartle solubility models", "format": "physicochemical", "text": "It is the first solvate complex model and correlates solubility as a function of supercritical fluid density and temperature as:18 y2=ρ1^κ-1[…] where κ and E0-E1 are model constants. Since Eq. (13) is dimensionally inconsistent[24],[26],[39], it is dimensionally corrected and known as Reformulated […] model:19 y2=[…] where κ^' and E0-E1 are model constants. It is one of the successful empirical models and correlates solubility as a function of temperature, supercritical fluid density and total pressure as:20 […] where G0-G2 are model constants. From parameter G1 , the vaporization enthalpy is ΔvapH=-G1R in which R is universal gas constant. The new solution model proposed in this work has three adjustable parameters ( ΔCp , a11 and a22 ). For regression, these parameters are treated as temperature dependent and temperature independent. Although conceptually, these parameters are temperature dependent[43],[44], however, in literature, these parameters are handled as temperature independent over a small temperature range[45]. Therefore, both temperature dependent and independent results are reported in this study. For regression, melting temperature and molar volume of pantoprazole sodium sesquihydrate are needed. The required melting temperature is obtained from the material's source and the molar volume of the solid pantoprazole sodium sesquihydrate is calculated using Immirzi and […] method. […] The proposed model correlates the data less than 14.9% and 16.23% in terms of AARD% for temperature dependent and independent cases, respectively. […] The correlations of the solubility data with temperature dependent parameters are better than temperature independent parameters. […], Sodeifian et al., and […] models correlate the solubility data. The correlations of the data are quite satisfactory for […] model compared to […] and Sodeifian models. From the conventional model constants, the thermodynamic properties, namely total heat of enthalpy of vaporization and solvation are calculated and reported in Table 6. […]"}}, "note": "“And” between values parts separate entries of the source, which are not always exact repeats. Identical values can stand only once. Marks after values point to notes of the source that are not given here."}
{"smiles": "COc1ccnc(C[S+]([O-])c2nc3ccc(OC(F)F)cc3[nH]2)c1OC", "note": "(stereo not shown) [pantoprazole sodium sesquihydrate, Pantoprazole sodium sesquihydrate]", "values": [{"measurement": "y2 × 10^4 (mole fraction)", "setting": "[1]; in ScCO2, 308 K, 12 MPa, ScCO2 density 769 kg/m^3", "result": 0.0648, "unit": "mole fraction"}, {"measurement": "y2 × 10^4 (mole fraction)", "setting": "[1]; in ScCO2, 308 K, 15 MPa, ScCO2 density 817 kg/m^3", "result": 0.0764, "unit": "mole fraction"}, {"measurement": "y2 × 10^4 (mole fraction)", "setting": "[1]; in ScCO2, 308 K, 18 MPa, ScCO2 density 849 kg/m^3", "result": 0.0921, "unit": "mole fraction"}, {"measurement": "y2 × 10^4 (mole fraction)", "setting": "[1]; in ScCO2, 308 K, 21 MPa, ScCO2 density 875 kg/m^3", "result": 0.0958, "unit": "mole fraction"}, {"measurement": "y2 × 10^4 (mole fraction)", "setting": "[1]; in ScCO2, 308 K, 24 MPa, ScCO2 density 896 kg/m^3", "result": 0.1239, "unit": "mole fraction"}, {"measurement": "y2 × 10^4 (mole fraction)", "setting": "[1]; in ScCO2, 308 K, 27 MPa, ScCO2 density 914 kg/m^3", "result": 0.1489, "unit": "mole fraction"}, {"measurement": "y2 × 10^4 (mole fraction)", "setting": "[1]; in ScCO2, 318 K, 12 MPa, ScCO2 density 661 kg/m^3", "result": 0.0548, "unit": "mole fraction"}, {"measurement": "y2 × 10^4 (mole fraction)", "setting": "[1]; in ScCO2, 318 K, 15 MPa, ScCO2 density 744 kg/m^3", "result": 0.0580, "unit": "mole fraction"}, {"measurement": "y2 × 10^4 (mole fraction)", "setting": "[1]; in ScCO2, 318 K, 18 MPa, ScCO2 density 791 kg/m^3", "result": 0.0990, "unit": "mole fraction"}, {"measurement": "y2 × 10^4 (mole fraction)", "setting": "[1]; in ScCO2, 318 K, 21 MPa, ScCO2 density 824 kg/m^3", "result": 0.1192, "unit": "mole fraction"}, {"measurement": "y2 × 10^4 (mole fraction)", "setting": "[1]; in ScCO2, 318 K, 24 MPa, ScCO2 density 851 kg/m^3", "result": 0.1436, "unit": "mole fraction"}, {"measurement": "y2 × 10^4 (mole fraction)", "setting": "[1]; in ScCO2, 318 K, 27 MPa, ScCO2 density 872 kg/m^3", "result": 0.1930, "unit": "mole fraction"}, {"measurement": "y2 × 10^4 (mole fraction)", "setting": "[1]; in ScCO2, 328 K, 12 MPa, ScCO2 density 509 kg/m^3", "result": 0.0381, "unit": "mole fraction"}, {"measurement": "y2 × 10^4 (mole fraction)", "setting": "[1]; in ScCO2, 328 K, 15 MPa, ScCO2 density 656 kg/m^3", "result": 0.0498, "unit": "mole fraction"}, {"measurement": "y2 × 10^4 (mole fraction)", "setting": "[1]; in ScCO2, 328 K, 18 MPa, ScCO2 density 725 kg/m^3", "result": 0.1388, "unit": "mole fraction"}, {"measurement": "y2 × 10^4 (mole fraction)", "setting": "[1]; in ScCO2, 328 K, 21 MPa, ScCO2 density 769 kg/m^3", "result": 0.1579, "unit": "mole fraction"}, {"measurement": "y2 × 10^4 (mole fraction)", "setting": "[1]; in ScCO2, 328 K, 24 MPa, ScCO2 density 802 kg/m^3", "result": 0.2354, "unit": "mole fraction"}, {"measurement": "y2 × 10^4 (mole fraction)", "setting": "[1]; in ScCO2, 328 K, 27 MPa, ScCO2 density 829 kg/m^3", "result": 0.3106, "unit": "mole fraction"}, {"measurement": "y2 × 10^4 (mole fraction)", "setting": "[1]; in ScCO2, 338 K, 12 MPa, ScCO2 density 388 kg/m^3", "result": 0.0301, "unit": "mole fraction"}, {"measurement": "y2 × 10^4 (mole fraction)", "setting": "[1]; in ScCO2, 338 K, 15 MPa, ScCO2 density 557 kg/m^3", "result": 0.0403, "unit": "mole fraction"}, {"measurement": "y2 × 10^4 (mole fraction)", "setting": "[1]; in ScCO2, 338 K, 18 MPa, ScCO2 density 652 kg/m^3", "result": 0.1548, "unit": "mole fraction"}, {"measurement": "y2 × 10^4 (mole fraction)", "setting": "[1]; in ScCO2, 338 K, 21 MPa, ScCO2 density 710 kg/m^3", "result": 0.1938, "unit": "mole fraction"}, {"measurement": "y2 × 10^4 (mole fraction)", "setting": "[1]; in ScCO2, 338 K, 24 MPa, ScCO2 density 751 kg/m^3", "result": 0.3408, "unit": "mole fraction"}, {"measurement": "y2 × 10^4 (mole fraction)", "setting": "[1]; in ScCO2, 338 K, 27 MPa, ScCO2 density 783 kg/m^3", "result": 0.4634, "unit": "mole fraction"}, {"measurement": "cross over pressure", "setting": "[1]; solubility isotherms 308-338 K in ScCO2, from Fig. 2", "result": "around 16.0 MPa"}, {"measurement": "Enthalpy of solvation, ΔHsol", "setting": "[2]; Bartle et al. and Chrastil models combination (difference of ΔHvap and ΔHtotal)", "result": "−15.829 kJ/mol and −15.829^d kJ/mol"}, {"measurement": "Enthalpy of vaporization ΔHvap", "setting": "[2]; from Bartle et al. model (ΔvapH = −G1R)", "result": "~75.261^c (approximate value) kJ/mol"}, {"measurement": "Total enthalpy, ΔHtotal", "setting": "[2]; from Reformulated Chrastil model", "result": "39.832^b kJ/mol"}]}
